Experimental data reported in ChEMBL document CHEMBL1131888, “Synthesis, dopamine and serotonin transporter binding affinities of novel analogues of meperidine” (Bioorg Med Chem Lett, 1999).

Molecular target: Monoamine transporters; serotonin & dopamine (Rattus norvegicus) (UniProt P31652+P23977)
Assay: Relative affinity for dopamine and serotonin transporters
Type: protein assay

Chain of Monoamine transporters; serotonin & dopamine (Rattus norvegicus) (P23977 whole entry, looked up): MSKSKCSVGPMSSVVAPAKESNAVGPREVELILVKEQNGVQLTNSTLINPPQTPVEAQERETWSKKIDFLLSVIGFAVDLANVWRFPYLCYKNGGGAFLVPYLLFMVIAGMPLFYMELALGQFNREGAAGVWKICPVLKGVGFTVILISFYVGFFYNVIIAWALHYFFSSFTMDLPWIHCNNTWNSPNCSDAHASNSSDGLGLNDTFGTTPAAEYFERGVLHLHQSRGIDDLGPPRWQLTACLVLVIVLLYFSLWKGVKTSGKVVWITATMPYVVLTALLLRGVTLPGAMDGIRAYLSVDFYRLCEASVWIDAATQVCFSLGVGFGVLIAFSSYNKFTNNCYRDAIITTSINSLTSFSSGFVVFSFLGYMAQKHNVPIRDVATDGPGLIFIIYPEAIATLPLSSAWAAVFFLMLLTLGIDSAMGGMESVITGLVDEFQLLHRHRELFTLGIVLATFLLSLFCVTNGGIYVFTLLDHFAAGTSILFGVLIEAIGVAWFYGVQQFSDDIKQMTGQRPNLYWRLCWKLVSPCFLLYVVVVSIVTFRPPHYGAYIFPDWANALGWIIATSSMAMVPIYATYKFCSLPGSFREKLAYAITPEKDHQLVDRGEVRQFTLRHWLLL
Chain of Monoamine transporters; serotonin & dopamine (Rattus norvegicus) (P31652 whole entry, looked up): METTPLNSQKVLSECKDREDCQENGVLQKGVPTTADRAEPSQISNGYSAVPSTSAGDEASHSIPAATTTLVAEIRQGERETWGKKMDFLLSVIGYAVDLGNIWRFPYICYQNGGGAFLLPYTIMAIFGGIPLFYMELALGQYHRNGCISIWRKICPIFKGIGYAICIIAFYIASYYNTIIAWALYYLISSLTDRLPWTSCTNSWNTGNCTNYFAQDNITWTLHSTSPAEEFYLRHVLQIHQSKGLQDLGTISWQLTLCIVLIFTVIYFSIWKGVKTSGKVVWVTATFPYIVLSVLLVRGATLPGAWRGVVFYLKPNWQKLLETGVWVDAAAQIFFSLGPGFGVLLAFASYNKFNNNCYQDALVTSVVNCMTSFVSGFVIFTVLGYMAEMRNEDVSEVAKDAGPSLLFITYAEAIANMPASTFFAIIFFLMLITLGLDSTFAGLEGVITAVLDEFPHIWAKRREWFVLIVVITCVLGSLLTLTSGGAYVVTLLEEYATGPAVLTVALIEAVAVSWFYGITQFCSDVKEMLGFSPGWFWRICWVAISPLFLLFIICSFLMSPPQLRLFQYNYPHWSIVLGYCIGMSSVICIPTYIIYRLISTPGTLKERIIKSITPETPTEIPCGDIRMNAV

Compound | Selectivity
CCOC(=O)C1(c2ccc(Cl)c(Cl)c2)CCN(C)CC1 | 6.68
CN1CCC(C#N)(c2ccc(Cl)cc2)CC1 | 4.31
CCOC(=O)C1(c2ccc(Cl)cc2)CCN(C)CC1 | 14.8
CCOC(=O)C1(c2ccc(I)cc2)CCN(C)CC1 | 155
Cc1ccc(C2(C#N)CCN(C)CC2)cc1 | 3.06
CN1CCC(C#N)(c2ccc(Cl)c(Cl)c2)CC1 | 3.32
CCOC(=O)C1(c2ccc3ccccc3c2)CCN(C)CC1 | 158
CCOC(=O)C1(c2ccc(C)cc2)CCN(C)CC1 | 7.69
CN1CCC(C#N)(c2cccc3ccccc23)CC1 | 16.7
CN1CCC(C#N)(c2ccc3ccccc3c2)CC1 | 18.9
CCOC(=O)C1(c2ccc(F)cc2)CCN(C)CC1 | 34.7
CN1CCC(C#N)(c2ccc(I)cc2)CC1 | 19.4

Molecular target: Sodium-dependent serotonin transporter (Rattus norvegicus, UniProt P31652)
Sequence (P31652 whole entry): as the sequence (P31652 whole entry, looked up) above
Assay: Displacement of [3H]paroxetine from serotonin transporter (SERT)

Compound | Ki [µM]
CCOC(=O)C1(c2ccc(Cl)c(Cl)c2)CCN(C)CC1 | 0.019
CN1CCC(C#N)(c2ccc(Cl)cc2)CC1 | 5.11
CCOC(=O)C1(c2ccc(Cl)cc2)CCN(C)CC1 | 0.277
CCOC(=O)C1(c2ccc(I)cc2)CCN(C)CC1 | 0.021
Cc1ccc(C2(C#N)CCN(C)CC2)cc1 | 13.7
CN1CCC(C#N)(c2ccc(Cl)c(Cl)c2)CC1 | 0.805
CCOC(=O)C1(c2ccc3ccccc3c2)CCN(C)CC1 | 0.0072
CCOC(=O)C1(c2ccc(C)cc2)CCN(C)CC1 | 1.61
CN1CCC(C#N)(c2cccc3ccccc23)CC1 | 1.02
CN1CCC(C#N)(c2ccc3ccccc3c2)CC1 | 0.125
CCOC(=O)C1(c2ccc(F)cc2)CCN(C)CC1 | 0.308
CN1CCC(C#N)(c2ccc(I)cc2)CC1 | 0.43
CN1CCC(C#N)(c2ccc(F)cc2)CC1 | 10.1

Molecular target: Sodium-dependent dopamine transporter (Rattus norvegicus, UniProt P23977)
Sequence (P23977 whole entry): as the sequence (P23977 whole entry, looked up) above
Assay: Displacement of [3H]WIN-35428 from dopamine transporter (DAT)

Compound | Ki [µM]
CCOC(=O)C1(c2ccc(Cl)c(Cl)c2)CCN(C)CC1 | 0.125
CN1CCC(C#N)(c2ccc(Cl)cc2)CC1 | 22
CCOC(=O)C1(c2ccc(Cl)cc2)CCN(C)CC1 | 4.1
CCOC(=O)C1(c2ccc(I)cc2)CCN(C)CC1 | 3.25
Cc1ccc(C2(C#N)CCN(C)CC2)cc1 | 41.8
CN1CCC(C#N)(c2ccc(Cl)c(Cl)c2)CC1 | 2.67
CCOC(=O)C1(c2ccc3ccccc3c2)CCN(C)CC1 | 1.14
CCOC(=O)C1(c2ccc(C)cc2)CCN(C)CC1 | 12.4
CN1CCC(C#N)(c2cccc3ccccc23)CC1 | 16
CN1CCC(C#N)(c2ccc3ccccc3c2)CC1 | 2.36
CCOC(=O)C1(c2ccc(F)cc2)CCN(C)CC1 | 10.7

Molecular target: Sodium-dependent dopamine transporter (Rattus norvegicus) (UniProt P23977)
Sequence (P23977 whole entry): as the sequence (P23977 whole entry, looked up) above
Assay: Inhibition of binding affinity for dopamine transporter (DAT) by competition against bound [3H]WIN-35428 tested in vitro at a dose of 100 uM

Compound | inhibition [%]
CN1CCC(C#N)(c2ccc(Cl)cc2)CC1 | 79
CCOC(=O)C1(c2ccc(Cl)cc2)CCN(C)CC1 | 79
Cc1ccc(C2(C#N)CCN(C)CC2)cc1 | 68
CCOC(=O)C1(c2ccc(C)cc2)CCN(C)CC1 | 68
CN1CCC(C#N)(c2ccc(F)cc2)CC1 | 45
